Measured values as given in US8999322B2, “Compositions and methods for modulating hemostasis” (The United States of America National Institutes of Health …, priority 2005, dated 2015).

Experiments:
mIIa = details: read-out: Kd of DAPA for mIIa; cited from earlier work
IIaWT = target: T1, IIaWT (Homo sapiens, UniProt P00734); test: Binding of DAPA to thrombin variants (fluorescence); details: fluorescence studies, data not shown
T1 construct: yielding mIIa as the sole intermediate, followed by cleavage at Arg-271 to produce IIa
Procedure: Front face fluorescence measurements were performed in a plate reader (SpectraMax Gemini, Molecular Devices) by using black polystyrene plates (no. 3650, Corning). Reaction mixtures (100 μl) prepared in assay buffer contained increasing concentrations of DAPA (24 concentrations, 0-100 μM) with no addition, 0.5 μM IIa, or 0.5 μM IIaTAT. […] Subtraction of the intensity measured with DAPA alone yielded the fluorescence change associated with the binding of DAPA to Ha or IIaTAT. Fluorescence data were analyzed as described in ref 7 to infer the equilibrium dissociation constant.

IIa = details: read-out: Kd of DAPA for IIa; cited from earlier work
mIIaTAT = target: T2, mIIaTAT (Homo sapiens, UniProt P00734, E366T/I364T/V365A); test: DAPA binding to zymogen-like mIIaTAT (interpretation of rescue data); details: possible interpretation of rescue findings
T2 construct: made in house; host or cells: IITAT from HEK293 cells, cleaved in the reaction by prothrombinase
From the text: Ligands that bind with high affinity to the proteinase are established to enhance the ability of the zymogen to adopt a proteinase-like configuration (13, 20, 23). Our findings are consistent with two possible interpretations. […] Alternatively, DAPA could act by selectively binding and favoring the proteinase in an equilibrium between zymogen-like and proteinase-like forms of mIIaTAT in which the zymogen-like state is highly favored.

IITAT = target: T3, IITAT (Homo sapiens, UniProt P00734, E366T/I364T/V365A); test: Rescue of IITAT cleavage at Arg-271 by DAPA (areas under mIIa progress curves); type: biochemical; details: DAPA 0-300 μM; 5.4 μM IITAT, 0.8 nM prothrombinase; read-out: DAPA concentration for half-maximal effect on rescue of second half-reaction in IITAT cleavage
T3 construct: made in house
Procedure: Reaction mixtures prepared in assay buffer and maintained at 25° C., contained 5.4 μM IIWT, IITAT, or IIQ155,Q284, 20 μM PCPS, 28 nM Va, and indicated concentrations of DAPA. Cleavage was initiated by the addition of 0.8 nM Xa and samples (15 μl), withdrawn at the indicated times, were quenched by mixing with an equal volume of 2 NuPAGE LDS sample buffer (Invitrogen) containing 50 mM EDTA. Quenched samples were treated with 71 mM DTT, heated at 89° C. for 5 min, and subjected to electrophoresis (4.2 μg protein per lane) by using NuPAGE 4-12% gels and Mes running buffer (Invitrogen). Protein bands visualized by staining with Coomassie brilliant blue R-250 were imaged and analyzed by quantitative densitometry by using procedures described in detail in refs. 4 and 15. Analysis of the cleavage of FPR-IIQ320 and NaSCN-treated IIQ320 was performed as described above except that reaction mixtures contained 5.8 μM prothrombin variant, 50 μM PCPS, 60 nM Va, 40 μM DAPA, and 1 nM Xa.
Effects of DAPA were assessed by integrating areas under the progress curves for mIIa formation and its disappearance for the different prothrombin variants (FIG. 5). Normalized areas obtained in the activation of IIWT or IIQ155,Q284 were identical and were independent of DAPA varied between 0 and 300 μM for IIQ155,Q284 or 20 and 300 μM for IIWT. […]

- equilibrium dissociation constant of DAPA for IIaWT (IIaWT): nanomolar
- Kd (mIIaTAT): 30 µM
- EC50 (IITAT): ~20 µM
Structure (SMILES): CCC1CCN(C(=O)C(CCCNC(=N)N)NS(=O)(=O)c2cccc3c(N(C)C)cccc23)CC1 [DAPA, dansyl-L-arginine N-(3-ethyl-1,5-pentanediyl)amide]
- Kd (mIIa): ~0.001 µM
- Kd (IIa): ~0.001 µM
